The source of these data is patent US11492325B2, “Compounds as inhibitors of sodium channels” (Human BioMolecular Research Institute, priority 2016, dated 2022).

Series [1] has as its target T1, CYP3A4 (Homo sapiens, UniProt P08684). Kind of series: Metabolism with highly purified CYP3A4 (HPLC). To be noted: for Human CYP3A4 (nmol/incub): 3 pmol enzyme/incubation, 30 mins, 37° C., nmol metabolism/incubation.
For the next series, the target named is T2, Human FMO1 (Homo sapiens, UniProt Q01740).
T2 sequence (Q01740 1-532): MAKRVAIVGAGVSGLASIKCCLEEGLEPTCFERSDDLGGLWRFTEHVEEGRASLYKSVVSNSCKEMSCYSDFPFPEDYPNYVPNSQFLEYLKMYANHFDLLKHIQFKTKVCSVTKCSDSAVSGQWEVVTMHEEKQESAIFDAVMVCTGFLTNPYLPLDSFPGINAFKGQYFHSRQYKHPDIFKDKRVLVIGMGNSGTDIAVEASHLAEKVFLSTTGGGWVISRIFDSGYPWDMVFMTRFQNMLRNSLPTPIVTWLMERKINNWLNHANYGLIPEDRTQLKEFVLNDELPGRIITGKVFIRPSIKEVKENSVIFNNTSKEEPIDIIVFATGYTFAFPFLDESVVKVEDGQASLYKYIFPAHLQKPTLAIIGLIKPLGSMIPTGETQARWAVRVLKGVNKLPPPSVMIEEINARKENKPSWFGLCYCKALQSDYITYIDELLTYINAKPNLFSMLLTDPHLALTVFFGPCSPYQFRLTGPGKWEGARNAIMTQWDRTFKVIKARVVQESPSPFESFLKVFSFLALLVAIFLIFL
Description: Metabolism with human FMO1 (nmol metabolism/incubation). To be noted: 15 μg enzyme/incubation; 30 mins, 37° C.; nmol metabolism/incubation.

Another series concerns the target Human FMO3 (Homo sapiens, UniProt P31513). To be noted: 15 μg enzyme/incubation; 30 mins, 37° C.; nmol metabolism/incubation.
Series [2] can be described thus: Metabolism in mouse hepatic S9. To be noted: 0.4 mg protein/incubation; 30 mins, 37° C.; nmol metabolism/incubation. As to the method:
(§1) A typical incubation contained rat, mouse, dog or human liver microsomes (0.4-0.5 mg of protein), 100 mM potassium phosphate buffer (pH7.4), 50 μM test compound, an NADPH-generating system consisting of 0.5 mM NADP^+, 0.5 mM glucose-6-phosphate, 1 IU/mL glucose-6-phosphate dehydrogenase, 1 mg/mL diethylenetriaminepentaaceticacid (DETAPAC), and 3 mM MgCl2 in a final incubation volume of 0.25 mL. […] After centrifugation at 3000 rpm for 5 min, the organic fraction was collected, the solvent was removed with a stream of argon and the residue was reconstituted in 125 μL of MeOH and 125 μL H2O, mixed thoroughly, centrifuged at 13,000 rpm for 5 min and analyzed by high performance liquid chromatography. Samples were run on a Hitachi D-7000 HPLC system using a L-7100 analytical pump, L-7400 UV-Visible variable wavelength detector, and L-7600 automatic sample injector. […] Disappearance of the analyte was monitored over time. A plot of the area under the curve for the normalized analyte versus time afforded the half-life values and kapp.
Microsomes contain CYPs and FMO metabolic enzymes. S9 contains soluble enzymes (i.e., aldehyde oxidase, MAO, etc.).

A short description of series [3]: Metabolic stability in dog liver microsomes. To be noted: for half-life at 50 μM: dog, liver microsomes, pH 7.4, NADPH-generating system, 37° C., read-out: Liver Microsomes t1/2 Dog. It is filed as in vitro ADME. As to the method: as §1
Background: Microsomes from liver hold many membrane-bound enzymes, among them those of drug oxidation.

A short description of series [4]: Metabolic stability in human liver microsomes. Type of series: in vitro ADME. The procedure, abridged: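 Liver microsomes (rat, mouse, dog or human; 0.4-0.5 mg protein) incubated with 50 μM compound in 100 mM potassium phosphate pH 7.4 with NADPH-generating system and 3 mM MgCl2. Parent loss followed by HPLC-UV; half-life and kapp from normalized peak area versus time.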

The nature of series [5]: Metabolic stability in mouse liver microsomes. Type of series: in vitro ADME. To be noted: for half-life at 50 μM: mouse, liver microsomes, pH 7.4, NADPH-generating system, 37° C., read-out: Liver Microsomes t1/2 Mouse. As to the method: as §1
A short description of series [6]: Metabolic stability in rat liver microsomes. It is filed as in vitro ADME. To be noted: for half-life at 50 μM: rat, liver microsomes, pH 7.4, NADPH-generating system, 37° C., read-out: Liver Microsomes t1/2 Rat. As to the method: as §1
The subject of series [7] is isolated perfused aged rat heart exposed to hydrogen peroxide. Kind of series: Aged rat heart perfusion model of arrhythmia (H2O2, ex vivo). To be noted: 10 μM, 30 min after perfusion, continuous H2O2 (0.1 mM). As to the method:
FIG. 1. Initiation of Early After Depolarizations-Mediated Ectopic Ventricular Beats and Ventricular Fibrillation in an Isolated Perfused Aged Rat Heart Exposed to hydrogen peroxide.
Conduction velocity (CV), action potential duration (APD) and responsiveness to drugs was measured in ex-vivo rat heart preparations (FIG. 1). We chose a rat heart model to test for the effect of (R)-82 (i.e., (R)-Dd, Example 4) to decrease arrhythmias because CV and APD are preserved in buffer-perfused rat hearts up to […]. In contrast, in this model, continuous presence (perfusion) of H2O2 (0.1 mM) produces early after depolarizations (EADs) and ectopic ventricular beats 6 min after exposure that degenerates to ventricular tachycardia (VT) and ventricular fibrillation (VF) after 12 min (FIG. 1). Left untreated, the heart would die within 45 mins. […] The conclusion is that (R)-82 is more efficacious than the currently used standard of care.

The nature of series [8]: Metabolism in human hepatic S9.
A further series has as its system Male BALBc mice. The conditions noted are these: mice, 100 mg/kg. The text has this:
Male BALBc mice (20-22 g) were used throughout these studies. The animals were maintained in a temperature-controlled room with 12-hr periods of light and darkness and had continuous access to water and animal food. […] Groups contained 2-4 animals.

The target of series [9] is T1, CYP3A4. The conditions noted are these: 50 min.
In a further series the target is CYP3A5 (Homo sapiens, UniProt P20815). Kind of series: Metabolism with highly purified CYP3A5 (HPLC). As to the method: as §1
(§2) Accordingly, we examined the metabolism of leads with highly purified CYPs with an HPLC method (Example 8).

The target in the next series is CYP2D6 (Homo sapiens, UniProt P10635). Kind of series: Metabolism with highly purified CYP2D6 (HPLC). As to the method: as §1, §2
In the next series the test system is FMO. Description: Metabolism by FMO.

Each structure is given as a SMILES string. Like-named read-outs stand apart in the source and are kept apart here. Bounds are passed on as bounds.

T1 sequence (P08684 whole entry): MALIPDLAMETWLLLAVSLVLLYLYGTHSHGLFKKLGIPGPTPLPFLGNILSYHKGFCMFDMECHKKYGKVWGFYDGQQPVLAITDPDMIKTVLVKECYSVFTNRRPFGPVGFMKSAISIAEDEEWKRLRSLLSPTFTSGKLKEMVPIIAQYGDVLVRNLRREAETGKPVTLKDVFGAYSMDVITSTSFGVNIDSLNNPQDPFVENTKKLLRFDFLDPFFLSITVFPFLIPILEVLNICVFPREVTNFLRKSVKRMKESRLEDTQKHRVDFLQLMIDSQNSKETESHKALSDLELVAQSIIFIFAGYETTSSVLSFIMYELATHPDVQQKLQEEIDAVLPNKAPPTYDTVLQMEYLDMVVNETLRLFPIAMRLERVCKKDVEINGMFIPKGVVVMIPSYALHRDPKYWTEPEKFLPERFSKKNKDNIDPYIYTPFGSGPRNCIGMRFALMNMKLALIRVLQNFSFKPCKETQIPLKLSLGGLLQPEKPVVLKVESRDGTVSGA
Chain of CYP2D6 (P10635 whole entry): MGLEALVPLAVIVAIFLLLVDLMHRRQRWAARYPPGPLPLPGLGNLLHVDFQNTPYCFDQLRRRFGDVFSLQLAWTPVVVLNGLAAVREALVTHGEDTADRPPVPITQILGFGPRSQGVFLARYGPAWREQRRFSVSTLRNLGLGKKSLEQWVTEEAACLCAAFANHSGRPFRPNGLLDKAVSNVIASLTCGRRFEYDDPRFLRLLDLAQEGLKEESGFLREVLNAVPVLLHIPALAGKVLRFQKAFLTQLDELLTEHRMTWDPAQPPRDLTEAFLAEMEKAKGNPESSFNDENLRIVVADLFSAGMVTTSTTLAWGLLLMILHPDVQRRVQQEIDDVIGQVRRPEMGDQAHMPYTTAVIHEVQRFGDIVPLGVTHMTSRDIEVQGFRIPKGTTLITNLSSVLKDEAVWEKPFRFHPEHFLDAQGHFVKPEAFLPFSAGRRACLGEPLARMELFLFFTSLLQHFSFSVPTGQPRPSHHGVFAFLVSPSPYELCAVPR
Chain of CYP3A5 (P20815 whole entry): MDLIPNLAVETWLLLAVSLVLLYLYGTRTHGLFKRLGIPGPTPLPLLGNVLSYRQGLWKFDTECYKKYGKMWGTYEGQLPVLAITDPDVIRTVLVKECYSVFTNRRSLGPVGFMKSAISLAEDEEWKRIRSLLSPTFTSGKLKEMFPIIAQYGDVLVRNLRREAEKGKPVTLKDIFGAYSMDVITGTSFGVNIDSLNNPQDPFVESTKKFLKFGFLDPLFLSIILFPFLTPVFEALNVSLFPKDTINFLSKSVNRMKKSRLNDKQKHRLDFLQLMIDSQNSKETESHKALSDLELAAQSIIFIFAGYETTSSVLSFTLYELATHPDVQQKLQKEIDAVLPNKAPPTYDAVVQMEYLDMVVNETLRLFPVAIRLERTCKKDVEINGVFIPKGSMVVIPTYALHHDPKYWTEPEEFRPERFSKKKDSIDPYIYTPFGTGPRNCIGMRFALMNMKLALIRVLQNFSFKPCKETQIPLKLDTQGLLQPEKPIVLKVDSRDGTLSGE
Chain of Human FMO3 (P31513 whole entry): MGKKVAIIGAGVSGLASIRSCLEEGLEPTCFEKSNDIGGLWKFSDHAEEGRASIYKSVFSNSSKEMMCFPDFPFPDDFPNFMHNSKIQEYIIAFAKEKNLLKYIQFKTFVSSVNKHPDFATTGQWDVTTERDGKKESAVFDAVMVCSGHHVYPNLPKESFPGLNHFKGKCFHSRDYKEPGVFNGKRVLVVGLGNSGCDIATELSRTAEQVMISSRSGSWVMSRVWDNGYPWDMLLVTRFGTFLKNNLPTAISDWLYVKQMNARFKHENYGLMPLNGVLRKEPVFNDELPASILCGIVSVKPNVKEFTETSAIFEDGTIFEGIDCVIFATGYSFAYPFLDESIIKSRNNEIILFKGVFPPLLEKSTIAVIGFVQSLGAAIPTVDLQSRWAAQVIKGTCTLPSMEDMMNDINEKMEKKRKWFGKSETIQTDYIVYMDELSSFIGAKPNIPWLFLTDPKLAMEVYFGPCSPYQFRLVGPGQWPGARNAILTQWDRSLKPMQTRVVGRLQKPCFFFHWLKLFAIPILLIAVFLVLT

Consider `Cl.[2H]C(N)(COc1ccccc1C)c1ccccc1` (stereo not drawn) [Compound 104c], for which the “Human CYP3A4 (nmol/incub)” value on CYP3A4 [1] is 1.0 nmol/incub. In addition, the “Human FMO1 (nmol/incub)” value on Human FMO1 is 1.4 nmol/incub. On Human FMO3, the “Human FMO3 (nmol/incub)” value is 1.3 nmol/incub. In series [2], the “Mouse liver S-9 (nmol/incub)” value came out at 13.2 nmol/incub.

Take `Cc1cc(C)cc(OCC(N)c2ccccc2)c1` (stereo not drawn) [drawing 301]: the half-life at 50 μM in series [3] turned out to be 3.07 h; in series [4] (human, liver microsomes, pH 7.4, 50 μM, NADPH-generating system, 37° C., read-out: Liver Microsomes t1/2 Human), 1.73 h; in [5], 0.983 h; in series [6], 0.867 h.

`NC(COc1cc(C(F)(F)F)cc(C(F)(F)F)c1)c1ccccc1` (stereo not drawn) [drawing 302]: the half-life at 50 μM in series [3] stood at 1.93 h. For the same compound, in series [4], the “parent after 60 min, Human liver microsomes (Stable)” value was “Stable >95% parent after 60 min”. The “parent after 60 min, Mouse liver microsomes (Stable)” value in [5] (60 min) was “Stable >95% parent after 60 min”. Also, in series [6] (60 min), the “parent after 60 min, Rat liver microsomes (Stable)” value is “Stable >95% parent after 60 min”.

In the case of `NC(COc1ccccc1C(F)(F)F)c1ccccc1` (stereo not drawn) [drawing 304], the “parent after 60 min, Dog liver microsomes (Stable)” value in series [3] (60 min) is given as “Stable >95% parent after 60 min”. In series [4], the “parent after 60 min, Human liver microsomes (Stable)” value was “Stable >95% parent after 60 min”. Also, the values for the half-life at 50 μM in [5] and in series [6] were 3.27 h and 3.3 h, respectively.

For the compound `Cl.NC(COc1ccccc1C(F)(F)F)c1ccccc1` (stereo in doubt) [(R)-82], the resolution of arrhythmias entry in [7] is “complete resolution of all forms of arrhythmias to normal sinus rhythm”. In addition, in series [4] (human, microsomes), the “Liver Microsomes T1/2” value came to 2.27 h. Besides, the “Liver S-9, remaining after 1 hr” value in series [8] (human, s9, 1 h) was >95% after 1 hr. Also, in the series on Male BALBc mice, the “Behavior Effect (R)-enantiomer” value was “No detectable effect”. Moreover, the “behavioral effects at 100 mg/kg” value with Male BALBc mice (enantiomers) is “no apparent behavioral effects”.

Turning to `Cl.NC(COc1ccccc1C(F)(F)F)c1ccccc1` (racemic) [Compound 82, 1-phenyl-2-(2-(trifluoromethyl)phenoxy)ethan-1-amine], at CYP3A4 [9], the “nmols metabolized, CYP3A4” value was 10.9 nmols; the “nmols/μg CYP, CYP3A4” value was determined as 0.77 nmols/μg CYP; the “pmols product/μg CYP/min, CYP3A4” value is given as 15.4 pmols product/μg CYP/min. Besides, on CYP3A5 (human, 50 min), the “nmols metabolized, CYP3A5” value was found to be 29.9 nmols; the “nmols/μg CYP, CYP3A5” value worked out at 2.13 nmols/μg CYP; the “pmols product/μg CYP/min, CYP3A5” value came to 42.6 pmols product/μg CYP/min. At CYP2D6 (human, 50 min), the “nmols metabolized, CYP2D6” value turned out to be 29.1 nmols; the “nmols/μg CYP, CYP2D6” value was 2.18 nmols/μg CYP; the “pmols product/μg CYP/min, CYP2D6” value amounted to 43.6 pmols product/μg CYP/min.

Regarding `Cc1cccc(C)c1OCC(C)N` (racemic) [Mexiletine, reference compound], on CYP3A5 (50 min incubation), the “nmols metabolized, CYP3A5” value is given as 34.2 nmols and the “pmols product/μg CYP/min, CYP3A5” value was found to be 48.8 pmols product/μg CYP/min. At CYP3A4 [1], the “Human CYP3A4 (nmol/incub)” value was determined as 3.0 nmol/incub. Moreover, on CYP3A4 [1] (50 min incubation), the “nmols metabolized, CYP3A4” value is 32.4 nmols and the “pmols product/μg CYP/min, CYP3A4” value came to 46.2 pmols product/μg CYP/min. Besides, on CYP2D6 (50 min incubation), the “nmols metabolized, CYP2D6” value was found to be 4.04 nmols and the “pmols product/μg CYP/min, CYP2D6” value was 6.0 pmols product/μg CYP/min. In addition, the “metabolism in human liver microsomes judged by HPLC” value in series [4] is given as “not metabolized very extensively”. The “metabolism in human liver S-9 judged by HPLC” value in [8] is “not metabolized very extensively”. The “Human FMO1 (nmol/incub)” value at Human FMO1 came out at 6.7 nmol/incub. Besides, the “metabolism by FMO” value in the series with FMO is “metabolized by FMO”. Besides, the “Mouse liver S-9 (nmol/incub)” value in series [2] was found to be 5.2 nmol/incub.
